{"source": "patent US20230091170A1", "about": "“ENRICHMENT OF ANTIGEN-SPECIFIC ANTIBODIES FOR ANALYTIC AND THERAPEUTIC USE” (priority 2020, published 2023)", "origin": "cited, not measured here", "note": "Like-named read-outs stand apart in the source and are kept apart here.", "data": [{"smiles": "O=C(O)CCCC[C@@H]1SC[C@@H]2NC(=O)N[C@@H]21", "note": "[Biotin]", "values": [{"measurement": "Serum concentration of biotin", "setting": "after a single dose of 300 mg biotin", "value": "up to 1160 ng/mL"}, {"measurement": "Normal circulating concentrations of biotin", "setting": "derived from the diet and normal metabolism", "value": "< 1.2", "unit": "ng/mL"}, {"measurement": "Serum concentration of biotin", "setting": "within the first hour after ingestion, supplements of 20 mg biotin per day", "value": "up to 355 ng/mL"}]}]}
